The record followed here is patent US7250269B2, “Composition for assaying glycoprotein” (Asahi Kasei Pharma Corporation, priority 2001, dated 2007).

Series [1] has as its system Protease type-XXIV. The experiment in a line: Screening of globulin component-selective protease inhibitors (HSA substrate with/without γ-globulin). In kind it is biochemical, Bacillus. Conditions: control 23.8. From the text:
Using protease type-XXIV (manufactured by Sigma-Aldrich Co.) having high reactivity with the HSA substrate solution, components that decrease the protease reaction with the above globulin substrate solutions were screened based on the HSA substrate solution.
In the R-1 proteolytic reagent, as the deoxycholic acid amide, bisgluconamidopropyldeoxycholamide was used; as the cholic acid amide, 3-[(3-cholamidopropyl)dimethvlammonio]propane sulfonic acid, 3-[(3-cholamidopropyl)dimethylammonio]-2-hydroxypropane sulfonic acid, or bisgluconamidopropylcholamide was used; as the quaternary ammonium salt, benzyltriethylan chloride or benzyltri-n-butylammonium chloride was used; and as quatemary ammonium salt-type cationic surfactant, lauryltrimethylammonium chloride or lauryldimethylamine oxide was used.
• 1. HSA substrate solution: Albumin Human: 40 mg/ml, GA %=10.5% [manufactured by Wako Pure Chemical Industries, Ltd., the albumin concentration in the substrate solution was assayed using an albumin assay kit (albumin II-HA Test Wako; manufactured by Wako Pure Chemical Industries, Ltd.). GA % was assayed using a glycated albumin analyzer (GAA-2000, manufactured by ARKRAY, Inc.). • 2. γ-globulin addition substrate solution, 17.0 mg/ml of γ-globulin [γ-Globulins Human (manufactured by Sigma-Aldrich Co.), Fructosamine value=34 μM] was added to the above HSA substrate solution. <Reaction Procedure>
Absorbances at a wavelength of 546 nm were measured before and after the addition of R-2. The difference of the two measurements was regarded as the absorbance change. The same procedure was conducted using distilled water instead of the substrate to prepare a blank sample. In addition, a reaction solution without the addition of the globulin-selective protease inhibitor was used as a control.
ΔA (HSA) was calculated by subtracting the absorbance change of the blank sample from the absorbance change obtained for the HSA substrate solution. ΔA(+γ-globulin) was calculated by subtracting the absorbance change of the blank sample from the absorbance change obtained for the substrate solution to which γ-globulin was added. Effect of γ-globulin addition=(ΔA(+γ-globulin)−ΔA(HSA))/ΔA(HSA)×100(%)

The test system of series [2] is Protease type-XXIV. The experiment in a line: Screening of globulin component-selective protease inhibitors using Hb substrate solution. In kind it is biochemical, Bacillus. Conditions: Hb substrate solution instead of HSA. The protocol: The same measurement was conducted using the Hb substrate solution instead of the HSA substrate solution, provided that when the Hb substrate solution was used, proteins were removed using trichloroacetic acid after the reaction with R-1, then the residue was neutralized and R-2 was added.

The subject of series [3] is heat-stable type ascorbic acid oxidase (ASO-312). Kind of series: Effect of buffer agent types on stabilization of ascorbic acid oxidase ASO-312 in the presence of protease. The class given is biochemical. Conditions: pH 8.0, stored two days at room temperature.
Procedure: 1 ml of the above mixed reaction reagent is placed in a small test tube and preheated at 30° C. for five minutes, then 0.10 ml of an appropriately diluted enzyme solution is added. The mixture is stirred to initiate the reaction. After the reaction for exactly 5 minutes, 3.0 ml of 0.2 N hydrochloric acid aqueous solution is added to terminate the reaction. Absorbance (As) at a wavelength of 245 nm is measured. For the blank test, 1 ml of the above reaction solution is placed in a small test tube and preheated at 30° C. for five minutes, then 3.0 ml of 0.2 N hydrochloric acid aqueous solution is added to terminate the reaction. 0.10 ml of an appropriately diluted enzyme solution is added and the mixture is stirred to measure the absorbance (Ab) at a wavelength of 245 nm. The enzyme activity is determined from the difference (Ab-As) between the absorbance (As) after the enzyme reaction and the blank test absorbance (Ab). The amount of enzyme oxidizing 1 μmol of ascorbic acid into dehydroascorbic acid in one minute at 30° C. is defined as 1 U. The calculation formula is shown below. Activity (U/ml)=[(Ab−As)/10.0]×[⅕]×[4.10/0.10]×[1/B] • 10.0: Molecular absorbance coefficient (mM) of ascorbic acid at 245 nm under the conditions of pH 1.0. • 5: Reaction time (min) • 4.10: Total reaction solution (ml) • 0.10: Amount of enzyme sample solution used for the reaction • B: Dilution magnification of the enzyme solution
The above reaction solutions were prepared using various buffer agents. A portion of each solution was used as a control after measuring the ascorbic acid oxidase activity. The above-described <<Method for Measuring the Activity of Ascorbic Acid Oxidase (ASOx)>> was employed for the activity measurement. The remaining portion of reaction solutions was stored for two days at room temperature, and the activity was measured in the same manner. The ratio of the activity after storage for two days at room temperature to the activity of the control was calculated to compare the stability of ascorbic acid oxidases.
Series [4] concerns the target T1, Ascorbic acid oxidase (ASO-311) (Cucurbita maxima, UniProt P24792).
T1 sequence (P24792 31-579): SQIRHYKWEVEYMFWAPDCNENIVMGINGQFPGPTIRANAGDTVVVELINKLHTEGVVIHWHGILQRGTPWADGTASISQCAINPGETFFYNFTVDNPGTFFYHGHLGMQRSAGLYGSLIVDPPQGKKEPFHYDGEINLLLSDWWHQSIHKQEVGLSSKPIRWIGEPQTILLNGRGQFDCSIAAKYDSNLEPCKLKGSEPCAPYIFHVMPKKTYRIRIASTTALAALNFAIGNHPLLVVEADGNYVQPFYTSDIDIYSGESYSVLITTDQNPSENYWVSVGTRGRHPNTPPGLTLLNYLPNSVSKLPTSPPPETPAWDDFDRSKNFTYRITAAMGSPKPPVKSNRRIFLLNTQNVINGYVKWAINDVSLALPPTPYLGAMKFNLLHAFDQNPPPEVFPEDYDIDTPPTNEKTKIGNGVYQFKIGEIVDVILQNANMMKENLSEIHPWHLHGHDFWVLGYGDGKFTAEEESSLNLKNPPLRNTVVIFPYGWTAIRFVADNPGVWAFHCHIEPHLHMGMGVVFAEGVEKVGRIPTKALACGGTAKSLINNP
Conditions: pH 8.0, stored two days at room temperature.

A further series deals with T2, Ascorbic acid oxidase (Cucurbita maxima, UniProt P24792).
T2 sequence (P24792 31-579): T1 sequence (P24792 31-579)
Conditions: R-1 stored 24 hours at room temperature; FIG. 4.

A further series deals with ASOx. The experiment in a line: Storage of ASOx with protease in HEPES buffer solution pH 8.0 (inventors' investigation). In kind it is biochemical. Conditions: pH 8.0, protease and ASOx present.
Series [5] is described as follows: FOD enzyme activity / substrate specificity on glycated lysine. The class given is biochemical. Conditions: glycated lysine / glycated valine. The protocol: 164 strains of mutant colonies obtained in Example 15 were cultured for 16 hours at 30° C. in 1.5 ml of a 3.7% BHI liquid medium (manufactured by DIFCO Co.) containing 50 μg/ml of ampicillin and 1 mM of IPTG. 1 ml of the culture broth was centrifuged (15,000 G for one minute at 4° C.) to collect cells. 200 μl of 10 mM Tris-HCl buffer solution (pH 8.0) was added to the collected cells. After crushing the cells using an ultrasonic breaker, the mixture was centrifuged (14,000 G for five minutes at 4° C.) to obtain a cell extract as a supernatant.
The glycated amino acid substrate specificity of FOD-mutated recombinant contained in the cell extract prepared in Example 16 was measured using the above-mentioned FOD enzyme activity measuring method.
Synthesis of an oligonucleotide having the base sequence of 1-27 in the sequence table Sequence ID No. 7 was consigned to an outside source (BEX Co., Ltd.). The oligonucleotide was subjected to the site-directed mutagenesis using the Mutan-K kit (manufactured by Takara Shuzo Co., Ltd.) according to the manual attached to the kit. The mutant gene obtained was incorporated again into the expression plasmid pTV119N, introduced into Escherichia coli host, and cultured at 30° C. for 16 hours in a 3.7% BHI liquid medium containing 50 μg/ml of ampicillin and 1 mM of IPTG to produce mutant FOD protein.

For another series, the system named is R-FOD-II. Kind of series: Stabilization of enzyme reacting at least with glycated amino acid. The class given is biochemical. The protocol:
8 μl of a sample was added to 240 μl of the proteolytic reagent incubated at 37° C. […] A relative sensitivity for the experiment using the reagent containing a stabilizer to the experiment using the reagent not containing a stabilizer was calculated assuming that ΔA0 obtained using the reagent not containing a stabilizer and used without storing is 100%.

Series [6] deals with T3, HSA substrate solution; Albumin Human (Homo sapiens, UniProt P02768).
T3 construct: purchased Sigma-Aldrich Co
Kind of series: Activity of various proteases on HSA substrate solution (released glycated amino acids/peptides assayed with R-FOD). The class given is biochemical. Conditions: pH 8.0; 37° C. for 30 minutes. The protocol: (§1) • 1. […] GA % was assayed using a glycated albumin analyzer (GAA-2000, manufactured by ARKRAY, Inc.). • 2. G-II and III substrate solutions, FRA value=48 μmol/L [Globulins Human Cohn Fraction II and III; 16.9 mg/ml (manufactured by Sigma-Aldrich Co.)] • 3. G-IV substrate solution, FRA value=26 μmol/L [Globulins Human Cohn Fraction IV; 6 mg/ml (manufactured by Sigma-Aldrich Co.)] • 4. G-I substrate solution, FRA value=77 μmol/L [Glovenin I: immunoglobulin preparation (manufactured by Takeda Chemical Industries, Ltd.)] • 5. Hb substrate solution: Hemoglobin Human; 55 mg/ml, glycated hemoglobin rate: HbA1c=4.5% [manufactured by Sigma-Aldrich Co., the HbA1c value was determined using a glycated hemoglobin analyzer (Hi-Auto A1C HA-8150, manufactured by ARKRAY, Inc.)]. […]
(§2) 300 μl of the above reaction solution for assaying glycated amino acids was added to a cell and incubated for three minutes at 37° C. […] Absorbances (A0 blank and A1 blank) were measured. The reaction of protease with glycated proteins is indicated by the following absorbance change. ΔA=(A1−A0)−(A1 blank−A0 blank)

Series [7] relates to G-I substrate solution (Glovenin I: immunoglobulin preparation). The experiment in a line: Activity of various proteases on G-I substrate solution (R-FOD assay). In kind it is biochemical. Conditions: pH 8.0, 37° C. for 30 minutes. On the procedure:
as §1, §2

In series [8] the target is T4, Hb substrate solution: Hemoglobin Human (Homo sapiens, UniProt P68871+P69905).
T4 construct: purchased Sigma-Aldrich Co
The experiment in a line: Activity of various proteases on Hb substrate solution (R-FOD assay). The class given is biochemical. Conditions: pH 8.0; 37° C. for 60 minutes. The protocol:
as §1, §2

Like-named read-outs stand apart in the source and are kept apart here.

T4 sequence (P69905 2-142 limits assumed): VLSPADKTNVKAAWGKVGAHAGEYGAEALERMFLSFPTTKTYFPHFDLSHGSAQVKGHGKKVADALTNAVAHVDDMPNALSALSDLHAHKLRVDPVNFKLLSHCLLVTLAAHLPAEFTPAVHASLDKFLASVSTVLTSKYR
T4 sequence (P68871 2-147 limits assumed): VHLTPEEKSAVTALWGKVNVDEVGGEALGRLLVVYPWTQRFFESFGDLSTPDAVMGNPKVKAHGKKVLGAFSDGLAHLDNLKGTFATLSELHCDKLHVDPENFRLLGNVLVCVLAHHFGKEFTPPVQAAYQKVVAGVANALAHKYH
T3 sequence (P02768 25-609): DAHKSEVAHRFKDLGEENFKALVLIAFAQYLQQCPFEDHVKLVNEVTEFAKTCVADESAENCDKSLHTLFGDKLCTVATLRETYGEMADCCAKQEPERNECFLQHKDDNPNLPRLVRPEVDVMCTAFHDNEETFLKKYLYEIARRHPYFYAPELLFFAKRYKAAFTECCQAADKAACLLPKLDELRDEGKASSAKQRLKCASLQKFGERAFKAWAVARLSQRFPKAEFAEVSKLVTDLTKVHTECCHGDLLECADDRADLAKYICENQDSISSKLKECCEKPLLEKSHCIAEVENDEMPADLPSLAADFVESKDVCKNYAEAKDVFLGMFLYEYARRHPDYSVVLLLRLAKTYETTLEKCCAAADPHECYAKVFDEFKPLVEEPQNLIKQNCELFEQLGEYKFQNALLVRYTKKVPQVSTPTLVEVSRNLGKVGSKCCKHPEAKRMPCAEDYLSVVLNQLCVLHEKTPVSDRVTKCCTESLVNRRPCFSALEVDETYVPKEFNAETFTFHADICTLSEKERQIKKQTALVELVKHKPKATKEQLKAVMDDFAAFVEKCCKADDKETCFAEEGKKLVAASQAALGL

In the case of `C[N+](C)(C)CC(=O)O` [Betaine], in the series on Protease type-XXIV [1] (additive concentration 0.10%), the “Effect of γ-globulin (%)” value was found to be 7.6%. The “effect of inhibiting a protease reaction with globulin” value in the series with Protease type-XXIV [2] is reported as “effect of inhibiting a protease reaction with globulin”.

With `O=S(=O)(O)CCCN1CCN(CCO)CC1` [EPPS], the “Relative activity (%) ASO-312” value in series [3] (Pronase) is 31%; in series [3] (Protease type XXIV) it was 30%. In addition, the “Relative activity (%) ASO-311” value in series [4] (Pronase) amounted to 13%; in series [4] (Protease type XXIV) it was 35%. For the same compound, at Ascorbic acid oxidase, the “ascorbic acid eliminating capability after storing” value was “almost no ascorbic acid eliminating capability”.

Turning to `O=S(=O)(O)CCN1CCN(CCO)CC1` [HEPES], the “Relative activity (%) ASO-312” value worked out at 37% in [3] (Pronase) and 34% in series [3] (Protease type XXIV). In addition, the “ascorbic acid treating capability after storage” value in the series on ASOx (one day at 37° C.) and in the series on ASOx (two weeks at 10° C.) was “lost almost entirely” in each case. Also, the “Relative activity (%) ASO-311” value in series [4] (Pronase) is 17%; in [4] (Protease type XXIV) it was 31%. The “ascorbic acid eliminating capability after storing” value at Ascorbic acid oxidase is listed as “almost no ascorbic acid eliminating capability”.

As for `O=S(=O)(O)CC(O)CN1CCN(CCO)CC1` (stereo not shown) [HEPPSO], the “Relative activity (%) ASO-312” value is recorded as 34% in series [3] (Pronase) and 22% in series [3] (Protease type XXIV). Besides, the “Relative activity (%) ASO-311” value in series [4] (Pronase) is 14%; in series [4] (Protease type XXIV), 37%. The “ascorbic acid eliminating capability after storing” value on Ascorbic acid oxidase is listed as “almost no ascorbic acid eliminating capability”.

With `O=S(=O)(O)CC(O)CN1CCN(CC(O)CS(=O)(=O)O)CC1` (stereo not shown) [POPSO], the “Relative activity (%) ASO-312” value was 80% in series [3] (Pronase) and 56% in [3] (Protease type XXIV). The “Relative activity (%) ASO-311” value stood at 80% in [4] (Pronase) and 62% in [4] (Protease type XXIV). For the same compound, the “ascorbic acid eliminating capability after storing” value on Ascorbic acid oxidase is listed as “no change”.

Regarding `N=C(N)NCCC[C@H](N)C(=O)O` [Reactive 327th amino acid Arginine], in series [5], the “Reactivity ratio, glycated lysine / glycated valine” value was found to be 440.

Consider `C[C@@H](O)[C@H](N)C(=O)O` [Reactive 327th amino acid Threonine], for which the “Reactivity ratio, glycated lysine / glycated valine” value in [5] was found to be 927.

Regarding `NCC(=O)O` [glycine, Glycine], in the series with R-FOD-II (storage for four weeks at 37° C.), the “decrease in performance of glycated amino acid assay reagent” value is on record as “almost no decrease in performance”. For the same compound, in the series on R-FOD-II (stored at 37° C. for two days, without stabilizer 30%, FIG. 6), the “stabilization effect on glycated amino acid assay reagent (relative sensitivity)” value was “stabilization effect”. In the series with R-FOD-II (stored in a liquid state in a refrigerator), the storage stability effect entry is reported as “one or more years”. Moreover, the “Kcat Reactivity ratio (a)/(b)” value in series [5] is 365.

On to Chymotrypsin, for which the “ΔA HSA” value in [6] is reported as 25 mAbs. The “ΔA Gl” value in [7] is reported as 103 mAbs. Further, the “ΔA Hb” value in [8] is 7 mAbs.

Concanavalin A: in the series with Protease type-XXIV [1] (additive concentration 0.21 mg/ml), the “Effect of γ-globulin (%)” value amounted to 14.9%. Moreover, the “effect of inhibiting a protease reaction with globulin” value in the series with Protease type-XXIV [2] is on record as “effect of inhibiting a protease reaction with globulin”.

For the compound Pancreatin, in [6], the “ΔA HSA” value is on record as 52 mAbs. The “ΔA Gl” value in series [7] is listed as 100 mAbs. Further, the “ΔA Hb” value in series [8] was determined as 17 mAbs.

Regarding trishydroxymethylaminomethane, the “Relative activity (%) ASO-312” value came to 62% in series [3] (Pronase) and 44% in series [3] (Protease type XXIV). Further, the “Relative activity (%) ASO-311” value in series [4] (Pronase) amounted to 55%; in [4] (Protease type XXIV), 52%. For the same compound, the “ascorbic acid eliminating capability after storing” value on Ascorbic acid oxidase is “no change”.
